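Five concentrations, 48 hours, 96-well plates. GI50 marks 50% less growth. The concentration for full growth arrest is given as TGI.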

The record followed here is PubChem BioAssay (NCI).

Among the test systems are RPMI-8226 leukemia; SK-MEL-5 melanoma; NCI-H23 lung; T-47D breast; A549 NSCLC; HOP-92 NSCLC; HCC-2998 colon; UACC-257 melanoma; HOP-62 NSCLC; ACHN renal.
Holding throughout (test): NCI tumour cell line growth inhibition, 48 h

Take `COc1cccc(C2c3cc4c(cc3OC(C)(N3CCCC3)C2C)OCO4)c1OC` (centres undefined): the TGI is above 100 µM in the assay on RPMI-8226 leukemia; 28.4 µM in the assay on SK-MEL-5 melanoma; 44.6 µM in the assay on NCI-H23 lung; 46.6 µM with T-47D breast; 35.8 µM with A549 NSCLC; 71.2 µM in the assay with HOP-92 NSCLC. Also, the TGI was found to be 53.2 µM in the assay on HCC-2998 colon, 64.1 µM with UACC-257 melanoma, 30.6 µM in the assay with HOP-62 NSCLC and 31.6 µM with ACHN renal.

For the compound `Clc1ccc(CSC(Cn2ccnc2)c2ccc(Cl)cc2Cl)cc1` (centres undefined), the GI50 in the assay on RPMI-8226 leukemia is 1.38 µM; with SK-MEL-5 melanoma, 1.61 µM; with NCI-H23 lung, 1.5 µM; in the assay on T-47D breast, 0.999 µM; with A549 NSCLC, 1.42 µM; in the assay with HOP-92 NSCLC, 0.914 µM. For the same compound, the GI50 with HCC-2998 colon is 1.64 µM; with UACC-257 melanoma, 1.43 µM; with HOP-62 NSCLC, 1.41 µM; in the assay on ACHN renal, 2.28 µM. Also, the TGI with RPMI-8226 leukemia turned out to be 4.49 µM; in the assay with SK-MEL-5 melanoma, 2.96 µM; with NCI-H23 lung, 3.6 µM; in the assay with T-47D breast it was 2.76 µM; in the assay on A549 NSCLC it was 3.13 µM; in the assay on HOP-92 NSCLC, 2.44 µM. In addition, the TGI in the assay with HCC-2998 colon turned out to be 3.12 µM; in the assay with UACC-257 melanoma it was 2.86 µM; in the assay with HOP-62 NSCLC, 2.73 µM; with ACHN renal it was 6.5 µM.

Take `CC1(C)N=C(N)N=C(N)N1c1cccc(CCCCc2cccc(S(=O)(=O)F)c2)c1`: the GI50 with RPMI-8226 leukemia is 2.31 µM; in the assay on SK-MEL-5 melanoma it was 0.535 µM; in the assay with NCI-H23 lung, 2.39 µM; with T-47D breast, 12.3 µM; in the assay on A549 NSCLC it was 0.751 µM; in the assay on HOP-92 NSCLC, 5.48 µM. Also, the GI50 is 3.17 µM in the assay with HCC-2998 colon, 2.79 µM with UACC-257 melanoma, 3.04 µM in the assay with HOP-62 NSCLC and 11.8 µM in the assay with ACHN renal. The TGI with RPMI-8226 leukemia is 35.2 µM; in the assay with SK-MEL-5 melanoma it was 14.8 µM; with NCI-H23 lung, above 100 µM; in the assay with T-47D breast, 45.1 µM; with A549 NSCLC, above 100 µM; with HOP-92 NSCLC it was 94 µM. Moreover, the TGI was above 56.3 µM in the assay with HCC-2998 colon, 36.6 µM in the assay with UACC-257 melanoma, above 47.9 µM in the assay with HOP-62 NSCLC and above 100 µM in the assay with ACHN renal.

Regarding `COc1ccc(C(=O)c2cc(OC)c(OC)c(OC)c2)cc1`, the TGI is 76.3 µM in the assay with RPMI-8226 leukemia; 26.3 µM with SK-MEL-5 melanoma; above 100 µM in the assay with NCI-H23 lung; 66.7 µM in the assay on T-47D breast; above 100 µM with A549 NSCLC; above 100 µM with HOP-92 NSCLC. The TGI with HCC-2998 colon was above 14 µM; in the assay on UACC-257 melanoma, above 100 µM; with HOP-62 NSCLC, above 100 µM; in the assay on ACHN renal, above 91.3 µM.

In the case of `Cn1cc(-c2ccc3c(Nc4cccc(NC(=O)Nc5cccc(F)c5)c4)ncnc3c2)cn1`, the GI50 was 1.53 µM in the assay on RPMI-8226 leukemia; 1.53 µM in the assay on SK-MEL-5 melanoma; 2.99 µM in the assay on NCI-H23 lung; 1.62 µM in the assay on T-47D breast; 1.85 µM in the assay on A549 NSCLC; 2.23 µM in the assay with HOP-92 NSCLC. Also, the GI50 in the assay on HCC-2998 colon was 4.81 µM; with UACC-257 melanoma, 4.5 µM; in the assay on HOP-62 NSCLC, 1.84 µM; with ACHN renal, 2.17 µM. Besides, the TGI came out at 4.65 µM with RPMI-8226 leukemia; 2.94 µM with SK-MEL-5 melanoma; 13.4 µM in the assay on NCI-H23 lung; 28.7 µM in the assay on T-47D breast; 17.9 µM in the assay with A549 NSCLC; 9.08 µM in the assay with HOP-92 NSCLC. Besides, the TGI in the assay with HCC-2998 colon worked out at 16.2 µM; in the assay on UACC-257 melanoma, 22.5 µM; in the assay on HOP-62 NSCLC it was 14.9 µM; in the assay with ACHN renal, 13.2 µM.

With `O=[N+]([O-])c1ccc(S(=O)(=O)Cc2ccccc2)c([N+](=O)[O-])c1`, the TGI in the assay with RPMI-8226 leukemia is 5.78 µM; with SK-MEL-5 melanoma it was 4.9 µM; in the assay on NCI-H23 lung, 3.52 µM; in the assay on T-47D breast it was 4.48 µM; with A549 NSCLC, 33.3 µM; in the assay on HOP-92 NSCLC, 3.38 µM. Besides, the TGI was 19.7 µM with HCC-2998 colon, 3.05 µM in the assay with UACC-257 melanoma, 9.13 µM with HOP-62 NSCLC and 2.92 µM in the assay on ACHN renal.

Take `FC(F)(F)Oc1cccc(-c2cnc3ccc(-c4ccncc4)nn23)c1`: the GI50 in the assay with RPMI-8226 leukemia is 1.31 µM; with SK-MEL-5 melanoma, 1.49 µM; in the assay with NCI-H23 lung, 1.96 µM; in the assay with T-47D breast it was 0.571 µM; with A549 NSCLC, 1.12 µM; with HOP-92 NSCLC, 1.8 µM. For the same compound, the GI50 in the assay with HCC-2998 colon is 4.47 µM; with UACC-257 melanoma, 2.02 µM; with HOP-62 NSCLC, 2.17 µM; in the assay with ACHN renal, 0.447 µM. Besides, the TGI in the assay with RPMI-8226 leukemia worked out at 4.84 µM; in the assay with SK-MEL-5 melanoma, 3.23 µM; in the assay with NCI-H23 lung it was 17.4 µM; with T-47D breast it was 4.26 µM; in the assay with A549 NSCLC, 9.22 µM; in the assay with HOP-92 NSCLC, 7.82 µM. In addition, the figures for the TGI in the assay with HCC-2998 colon, with HOP-62 NSCLC and with ACHN renal were above 100 µM, above 100 µM and 4.8 µM, respectively.

`COC(=O)[C@@]12C(=O)C=CC(=O)[C@@H]1C1C(=CC2COC(C)=O)O[C@@H]2OC3(CCCCC3)O[C@H]12` (some centres undefined): the TGI worked out at 22.7 µM in the assay with RPMI-8226 leukemia; 32.5 µM in the assay on SK-MEL-5 melanoma; 35.9 µM with NCI-H23 lung; 13.2 µM in the assay with T-47D breast; 22.4 µM with A549 NSCLC; 21.2 µM in the assay with HOP-92 NSCLC. The TGI stood at 30.4 µM with HCC-2998 colon, 30.3 µM with UACC-257 melanoma, 35 µM in the assay with HOP-62 NSCLC and 23.9 µM in the assay on ACHN renal.
